The record followed here is paper PMC7747594, “Protease-activated receptor-2 ligands reveal orthosteric and allosteric mechanisms of receptor inhibition” (Communications Biology, 2020).

SMILES strings stand for the structures. Values joined by “and” are separate entries in the source; they are usually repeats but may differ in a detail not shown here. Identical values can stand only once.

One assay concerns the target T1, hPAR2 (Homo sapiens, UniProt P55085).
T1 sequence (P55085 26-397): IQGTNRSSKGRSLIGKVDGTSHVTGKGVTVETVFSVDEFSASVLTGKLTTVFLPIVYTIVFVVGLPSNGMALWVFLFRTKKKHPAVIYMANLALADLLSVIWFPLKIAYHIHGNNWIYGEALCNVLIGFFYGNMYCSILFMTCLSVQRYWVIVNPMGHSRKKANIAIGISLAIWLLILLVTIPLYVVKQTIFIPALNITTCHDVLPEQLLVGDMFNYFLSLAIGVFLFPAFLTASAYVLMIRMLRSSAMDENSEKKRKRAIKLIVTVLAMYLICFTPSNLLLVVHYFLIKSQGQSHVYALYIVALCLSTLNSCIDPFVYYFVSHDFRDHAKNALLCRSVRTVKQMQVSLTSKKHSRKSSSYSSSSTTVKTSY
In words: β-arrestin-2 recruitment, agonist mode, U2OS-hPAR2 cells. Type of assay: cell-based. The arrangement: agonist response (Fig 2f), individual replicate values: unit not given here.

For the next assay, the target named is T2, PAR1 (F2R) (Homo sapiens, UniProt P25116).
T2 sequence (P25116 22-425): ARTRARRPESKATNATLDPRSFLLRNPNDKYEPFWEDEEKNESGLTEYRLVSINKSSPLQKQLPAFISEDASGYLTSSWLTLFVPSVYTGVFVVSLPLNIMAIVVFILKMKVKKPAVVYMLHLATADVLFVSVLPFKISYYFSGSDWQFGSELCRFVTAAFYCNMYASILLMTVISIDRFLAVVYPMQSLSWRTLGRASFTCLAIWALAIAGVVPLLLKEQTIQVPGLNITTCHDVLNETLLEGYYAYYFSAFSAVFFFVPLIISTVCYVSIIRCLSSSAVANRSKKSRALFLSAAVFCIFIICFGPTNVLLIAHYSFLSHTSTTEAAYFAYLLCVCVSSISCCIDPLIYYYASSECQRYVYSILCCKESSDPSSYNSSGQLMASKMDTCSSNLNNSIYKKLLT
In words: β-arrestin recruitment, DiscoverX profiling service, PAR1. Type of assay: cell-based.

The test system of the next assay is PAR2[F154A], PAR2[G157C]. In words: Ca^2+ flux assay, inhibition of trypsin in 1321N1 cells transiently transfected with PAR2 [WT], [F154A] or [G157C]. Type of assay: cell-based, human. To be noted: [F154A and G157C], monophasic. The procedure:
Cell culture reagents were purchased from ThermoFisher Scientific unless otherwise stated. The parental 1321N1 cell line was obtained from ECACC. 1321N1 cells, stably expressing the human PAR2 receptor, (1321N1-hPAR2) were routinely cultured in Dulbecco’s Modified Eagle Medium (DMEM) supplemented with GlutaMax-1 containing 10% fetal bovine serum (FBS) and G418 (600 µg ml^−1). U2OS cells, stably expressing human PAR2 (U2OS-hPAR2, 93-0235C3, DiscoverX/Eurofins) were routinely cultured in McCoy’s 5A media containing 10% FBS, G418 (500 µg ml^−1) and Hygromycin B (250 µg ml^−1). Rodent PAR2 was assessed in rat KNRK cells (ATCC) cultured in DMEM with 10% FBS supplemented with 2 mM L-Glutamine. Human PAR2 was assessed in HT-29 cells (ECACC) cultured in DMEM with 10% FBS supplemented with penicillin (50 U ml^−1) and streptomycin (50 µg ml^−1). […]
For evaluation of Ca^2+ mobilisation, 1321N1-hPAR2 cells were seeded in 384-well CellBIND plates (Corning) at 4000 cells per well in DMEM containing 10% FBS and incubated for 18–24 hours at 37 °C, 5% CO2 and 95% humidity. […] Inhibition of Ca^2+ release on rat PAR2 was measured in the same way using 10 000 KNRK cells per well seeded in poly-D-lysine coated 384-well plates (Greiner), 30 min preincubation with the compound before activation of PAR2 with EC80 of SLIGRL-NH2 (120 µM) and real-time detection of Ca^2+. […]

Take `CNC(=O)[C@H]1CC[C@@H](NC(=O)[C@H](CC2CCCCC2)NC(=O)c2cn(Cc3ccccc3)nn2)c2ccccc21` [AZ2429]: the EC50 on hPAR2 (U2OS-hPAR2, mean ± s.e.m., read-out: β-arrestin pEC50 (converted)) is 0.251 µM; at PAR1 (F2R) (Arrestin, Agonist format, F2R, read-out: RC50 (EC50)) it was above 50 µM. For the same molecule, the “agonist response (Fig 2f), individual replicate values” is 136.003 and 128.564 and 133.913 and 56.5764 and 110.418 and 80.4631 and 65.432 and 80.8727 and 70.3477 and 91.7141 and 102.077 and 89.1574 at hPAR2 ([compound],M -4.52288); 131.19 and 120.248 and 136.172 and 56.4288 and 102.534 and 68.8992 and 68.7979 and 70.6147 and 68.8215 and 77.979 and 96.7821 and 92.1516 at hPAR2 ([compound],M -5); 112.303 and 119.541 and 118.68 and 44.4899 and 108.952 and 63.9568 and 68.1752 and 70.9487 and 60.988 and 94.267 and 96.9331 and 92.4234 on hPAR2 ([compound],M -5.47712); 118.57 and 119.322 and 126.112 and 66.9594 and 124.296 and 94.3698 and 67.5375 and 74.2944 and 72.0498 and 104.83 and 109.824 and 109.97 on hPAR2 ([compound],M -5.95424); 125.477 and 105.411 and 104.73 and 109.603 and 104.761 and 111.037 and 54.7204 and 64.3421 and 52.5276 and 82.0218 and 82.1308 and 78.7213 at hPAR2 ([compound],M -6.43136); 100.424 and 92.4091 and 99.838 and 93.2711 and 86.5209 and 104.138 and 29.1218 and 35.2385 and 27.4797 and 47.1154 and 56.0608 and 47.0166 on hPAR2 ([compound],M -6.90849). Moreover, the “agonist response (Fig 2f), individual replicate values” was 86.365 and 78.1735 and 66.0975 and 85.2162 and 75.5111 and 91.061 and 20.8827 and 22.73 and 14.0732 and 38.9752 and 29.9961 and 25.8403 on hPAR2 ([compound],M -7.38561); 50.0191 and 38.4004 and 28.0445 and 63.4341 and 52.1546 and 58.7101 and 8.067 and 10.1642 and 0.7234 and 8.708 and 10.6741 and 5.686 on hPAR2 ([compound],M -7.86273); 11.2254 and 10.5953 and 6.644 and 26.1895 at hPAR2 ([compound],M -8.33985). The Max Response at PAR1 (F2R) (Arrestin, Agonist format, F2R) was determined as 0%; on PAR1 (F2R) (Arrestin, Antagonist format, F2R), 0%. The IC50 at PAR1 (F2R) (Arrestin, Antagonist format, F2R, read-out: RC50 (IC50)) is above 50 µM. In addition, the “activity against PAR1 in β-arrestin-2 recruitment assay” value at PAR1 (F2R) (DiscoverX profiling service) is listed as “No AZ2429 activity was detected”.

With `C[C@@H](C1CCCCC1)n1c(-c2cc3c(cc2Br)OCO3)nc2cc(C(=O)Nc3ccc(C#N)cc3)ccc21` [AZ3451], in the assay on PAR2[F154A], PAR2[G157C], the “inhibition of trypsin-induced PAR2 activation at mutant receptors pIC50” value is reported as 6.
